# From US20250213665A1, “METHODS FOR INHIBITING TRAINED IMMUNITY WITH NANOBIOLOGIC COMPOSITIONS” (Icahn School of Medicine at Mount Sinai, priority 2017, published 2025)
# Assay: Recovery and hydrolysis of the (pro-)drugs in nanobiologics
# Format: physicochemical
# Conditions: 4° C. in PBS
# Procedure: From 10 mg/ml stock solutions in chloroform, 1-palmitoyl-2-oleoyl-sn-glycero-3-phosphocholine (POPC, 250 μL), 1-palmitoyl-2-hydroxy-sn-glycero-3-phosphocholine (PHPC, 65 μL), cholesterol (15 μL), tricaprylin (1000 μL) and (pro-)drug (65 μL), were combined in a 20 ml vial and dried under vacuum. The resulting film was redissolved in a acetonitrile:methanol mixture (95%: 5%, 3 mL total volume). Separately, a solution of ApoA-I protein in PBS (0.1 mg/ml) was prepared. Using a microfluidic set-up, both solutions were simultaneously injected into a herringbone mixer, with a flow rate of 0.75 ml/min for the lipid solution and a rate of 6 ml/min for the ApoA-I solution. The obtained solution was concentrated by centrifugal filtration using a […] Vivaspin tube at 4000 rpm to obtain a volume of 5 mL. […]
# (Pro-)drug recovery and hydrolysis were determined using the following procedure: an aliquot (200 μL) of the particle solution was dried under vacuum, acetonitrile (600 μL) was added and the suspension was sonicated for 20 minutes. The suspension was centrifuged to precipitate any solids and the remaining solution was analyzed using HPLC; except for the malonate derivatives which were analyzed using SFC-MS, and Dimethylmalonate which was analyzed by GC-MS.
compound,measurement,value
CCCCCCCCCCCCCCCCCC(=O)O[C@@H]1CC[C@@H](C[C@@H](C)[C@@H]2CC(=O)[C@H](C)/C=C(\C)[C@@H](O)[C@@H](OC)C(=O)[C@H](C)C[C@H](C)/C=C/C=C/C=C(\C)[C@@H](OC)C[C@@H]3CC[C@@H](C)[C@@](O)(O3)C(=O)C(=O)N3CCCC[C@H]3C(=O)O2)C[C@H]1OC [Cis-Rapamycin],hydrolysis of the (pro-)drugs in the nanobiologics over time,hydrolysis was observed
